Source: US11122801B2, “Inhibitors of enzymes that confer pesticide resistance” (APRESLABS LTD., priority 2015, dated 2021)

Columns and labels:
[1] = system: P450 activity derived from Meligethes aeneus; experiment: P450 activity by deethylation of ethoxycoumarin (Example 7); format: biochemical; conditions: equal concentrations, 30 ug/incubation
Description: P450 activity was measured by the deethylation of ethoxycoumarin.
(30 ug/incubation) as used in Example 5.

[2] = target: T1, resistance-associated esterase, E4 (Myzus persicae, UniProt P35501); experiment: Inhibition of purified resistance-associated esterase E4, para-nitrophenyl acetate substrate; format: biochemical, M. persicae; conditions: 3 μL 1% synergist, 10 minutes incubation, 1 mM para-nitrophenyl acetate, 405 nm
T1 sequence (P35501 24-552): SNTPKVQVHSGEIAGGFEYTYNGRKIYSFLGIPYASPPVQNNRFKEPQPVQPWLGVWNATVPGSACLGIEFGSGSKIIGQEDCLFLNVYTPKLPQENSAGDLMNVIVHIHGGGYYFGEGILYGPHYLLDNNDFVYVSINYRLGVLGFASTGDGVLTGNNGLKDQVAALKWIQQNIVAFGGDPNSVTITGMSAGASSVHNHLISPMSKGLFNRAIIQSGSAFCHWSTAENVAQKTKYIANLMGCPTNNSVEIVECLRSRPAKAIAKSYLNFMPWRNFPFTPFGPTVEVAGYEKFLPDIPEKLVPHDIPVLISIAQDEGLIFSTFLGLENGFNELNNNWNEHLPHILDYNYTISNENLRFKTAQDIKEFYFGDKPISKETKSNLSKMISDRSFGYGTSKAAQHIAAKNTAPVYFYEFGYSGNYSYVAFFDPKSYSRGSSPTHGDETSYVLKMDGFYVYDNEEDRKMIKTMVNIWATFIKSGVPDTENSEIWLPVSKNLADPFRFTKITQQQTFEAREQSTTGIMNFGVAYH
Description: The assay used 1 mM para-nitrophenyl acetate as a substrate. 10 μL dilute E4 in 40 μL phosphate buffer (pH 7.0) was incubated with 3 μL 1% synergist for 10 minutes. 200 μL of 1 mM para-nitrophenyl acetate was added and the remaining activity was measured at 405 nm in a microplate spectrophotometer (Molecular Devices). Inhibition by the same concentration of PBO is shown for comparison.

[3] = system: P450 activity derived from insecticide-resistant B-type B. tabaci; experiment: P450 activity by deethylation of ethoxycoumarin (Example 5); conditions: 1% (30 ug/incubation), 10 minutes incubation, 7-ethoxycoumarin
Description: P450 activity was measured by the deethylation of ethoxycoumarin. 50 μL of the enzyme in the presence/absence of synergists was incubated for 10 minutes after which […] of 0.5 mm 7-ethyoxycoumarin in a phosphate buffer (pH 7.8) was added/incubated for a further 5 minutes at 30° C. after which 10 μL of 9.6 mm NaDPH was added. Fluorometric units (Fu) were measured with excitation wavelengths of 370 nm and 460 nm.

[4] = system: Houseflies (Musca domestica); experiment: Housefly topical mortality with α-cypermethrin and Syn A (Example 1); format: in vivo; conditions: α-cypermethrin alone, 1 μL of 0.0025 g L^−1, after 24 hrs
Description: Houseflies (Musca domestica) were treated with 1 μL of a diagnostic concentration (0.0025 g L^−1) of α-cypermethrin, such that about 20% of the flies had died after 24 hrs.
With the addition of 1% ‘Syn A’, (i.e. 10 ug/fly) the potassium salts of fatty acids (C14-C18) obtained as a by-product of olive oil production, the mortality increased to about 70% after 24 hours. The potassium salt synergist was applied first, and the insecticide was applied within 1 hr of the application of the synergist.
The mortality rate when Syn A was used on its own was about 10%.

SMILES: CCCCOCCOCCOCc1cc2c(cc1CCC)OCO2 [PBO, piperonyl butoxide]
- inhibition of P450 activity [1]: inhibition

SMILES: CCCCC/C=C\C/C=C\CCCCCCCC(=O)O [linoleic acid]
- inhibition of esterase E4 [2]: inhibition

SMILES: CCCCCCCC/C=C\CCCCCCCC(=O)O [oleic acid]
- inhibition of P450 activity [3]: inhibition
- inhibition of esterase E4 [2]: inhibition

SMILES: CC1(C)C(C=C(Cl)Cl)C1C(=O)OC(C#N)c1cccc(Oc2ccccc2)c1 (stereo not drawn) [α-cypermethrin]
- flies died (mortality) [4]: about 20%
